# “Also recorded” adds a separate entry of the source.
# What was measured:
# PKC-α = PKC-α (Homo sapiens, UniProt P17252); assay: PKC Enzyme Assay, alpha isozyme; assay type: biochemical; conditions: Table 1, 30 μM ATP, 30° C., 10 minutes
# Procedure: PKC enzymes=alpha, beta I, beta II, gamma, delta, epsilon, eta and zeta.
# Assay components in a total volume of 250 μL are as follows:
# For all the enzymes either histone type HL (Worthington) or myelin basic protein is used as substrate. The assay is started by addition of protein kinase C enzyme incubated at 30° C. for 10 minutes and stopped by adding 0.5 mL of cold trichloroacetic acid (Amresco) followed by 100 μL of 1 mg/mL bovine serum albumin (Sigma, St. Louis, Mo.). The precipitate is collected by vacuum filtration on glass fiber filters employing a TOMTEC™ filtration system and quantified by counting in a beta scintillation counter.
# [1] = from CN1C(=O)C(c2c[nH]c3ccccc23)=C(c2cn(CCOC(CCI)CO[Si](c3ccccc3)(c3ccccc3)C(C)(C)C)c3ccccc23)C1=O; amine bond; Cs2CO3; DMF; 8.98 mM; 68.0 h
# [2] = tested on: protein kinase C isozymes; conditions: literature; cited from earlier work
# [3] = target: Protein Tyrosine Kinase (src) (Homo sapiens, UniProt P12931); assay: Protein Tyrosine Kinase Assay (src); assay type: biochemical; conditions: Table 1; Raytide substrate
# Procedure: Protein Tyrosine Kinase Assay (src)
# The Assay components are the following:
# 4 μL DMSO or DMSO/inhibitor
# Protein Tyrosine Kinase (src), sequence (P12931 whole entry, species assumed): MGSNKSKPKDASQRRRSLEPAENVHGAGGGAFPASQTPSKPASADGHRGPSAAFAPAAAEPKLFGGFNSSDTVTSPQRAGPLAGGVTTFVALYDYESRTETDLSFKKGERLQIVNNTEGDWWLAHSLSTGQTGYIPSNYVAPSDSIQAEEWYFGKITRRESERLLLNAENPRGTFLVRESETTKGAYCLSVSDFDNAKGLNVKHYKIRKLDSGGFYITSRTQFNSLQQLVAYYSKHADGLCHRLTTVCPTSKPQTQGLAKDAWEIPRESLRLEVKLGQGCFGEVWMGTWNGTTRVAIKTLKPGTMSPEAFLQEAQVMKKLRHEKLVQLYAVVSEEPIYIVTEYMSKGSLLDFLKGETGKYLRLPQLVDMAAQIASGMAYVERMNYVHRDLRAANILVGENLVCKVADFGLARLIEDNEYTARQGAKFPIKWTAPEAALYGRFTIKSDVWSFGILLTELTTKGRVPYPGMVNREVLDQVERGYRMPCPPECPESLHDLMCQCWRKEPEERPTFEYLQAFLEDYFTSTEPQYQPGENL
smiles,measurement,setting,value
O=C1NC(=O)C2=C1c1cn(c3ccccc13)CCO[C@H](CNS(=O)(=O)c1ccccc1)CCn1cc2c2ccccc21 [Example 21s],IC50,PKC-α,> 5 µM
CN1C(=O)C2=C(C1=O)c1cn(c3ccccc13)CCC(CO[Si](c1ccccc1)(c1ccccc1)C(C)(C)C)OCCn1cc2c2ccccc21 (stereo not shown),"ring closure, yield of all isomers",[1],82%
"CN(C)CCCn1cc(C2=C(c3c[nH]c4ccccc34)C(=O)NC2=O)c2ccccc21 [3-[1-(3-dimethylaminopropyl)-indol-3-yl]-4-(1H-indol-3-yl)-1H-pyrrole-2,5-dione]",PKC isozyme selectivity,[2],"slight selectivity for the calcium dependent isozymes; also recorded: no difference, or possibly slight selectivity, for alpha over beta-1 and beta-2 isozymes"
O=C1NC(=O)C2=C1c1cn(c3ccccc13)CCO[C@H](CNCc1ccccc1)CCn1cc2c2ccccc21 [Example 18s],IC50,[3],> 100 µM
